Data taken from ChEMBL document CHEMBL4342421, “Current scenario of tetrazole hybrids for antibacterial activity” (Eur J Med Chem, 2019).
In brackets after ≈: the same amount, converted by molar mass.

Columns and labels:
Escherichia coli [1] = experiment: Antimicrobial activity against Escherichia coli; assay type: functional
Pseudomonas aeruginosa [2] = experiment: Antimicrobial activity against Pseudomonas aeruginosa; assay type: functional
Staphylococcus aureus [3] = experiment: Antimicrobial activity against Staphylococcus aureus; assay type: functional
Candida albicans [4] = experiment: Antifungal activity against Candida albicans; assay type: functional
Staphylococcus aureus [5] = experiment: Antibacterial activity against methicillin resistant Staphylococcus aureus N315 after 24 hrs by two-fold broth serial dilution method; assay type: functional; settings: N315, 24 h
Bacillus subtilis [6] = experiment: Antibacterial activity against Bacillus subtilis ATCC 21216 after 24 hrs by two-fold broth serial dilution method; assay type: functional; settings: ATCC 21216, 24 h
Micrococcus luteus [7] = experiment: Antibacterial activity against Micrococcus luteus ATCC 4698 after 24 hrs by two-fold broth serial dilution method; assay type: functional; settings: ATCC 4698, 24 h
Escherichia coli [8] = experiment: Antimicrobial activity against Escherichia coli JM 109 after 24 hrs by two-fold broth serial dilution method; assay type: functional; settings: JM 109, 24 h
Pseudomonas aeruginosa [9] = experiment: Antimicrobial activity against Pseudomonas aeruginosa ATCC 27853 after 24 hrs by two-fold broth serial dilution method; assay type: functional; settings: ATCC 27853, 24 h
Shigella dysenteriae = experiment: Antimicrobial activity against Shigella dysenteriae after 24 hrs by two-fold broth serial dilution method; assay type: functional
Candida albicans [10] = experiment: Antifungal activity against Candida albicans ATCC 76615 after 24 hrs; assay type: functional; settings: ATCC 76615, 24 h
Cyberlindnera jadinii = experiment: Antifungal activity against Candida utilis after 24 hrs; assay type: functional; settings: Williopsis jadinii
Aspergillus flavus [11] = experiment: Antifungal activity against Aspergillus flavus after 24 hrs; assay type: functional
Saccharomyces cerevisiae = experiment: Antifungal activity against Saccharomyces cerevisiae after 24 hrs; assay type: functional
Pichia norvegensis = experiment: Antifungal activity against Candida mycoderma after 24 hrs; assay type: functional
Aspergillus niger = experiment: Antifungal activity against Aspergillus niger; assay type: functional
Bacillus subtilis [12] = experiment: Antimicrobial activity against Bacillus subtilis; assay type: functional
Salmonella typhimurium = experiment: Antimicrobial activity against Salmonella typhimurium; assay type: functional, Salmonella enterica subsp. enterica serovar Typhimurium; settings: Salmonella enterica
Priestia megaterium = experiment: Antimicrobial activity against Bacillus megaterium; assay type: functional
Micrococcus luteus [13] = experiment: Antibacterial activity against Micrococcus luteus; assay type: functional
SiHa = experiment: Growth inhibition of human SiHa cells; assay type: functional
MDA-MB-231 = experiment: Growth inhibition of human MDA-MB-231 cells; assay type: functional
PANC-1 = experiment: Growth inhibition of human PANC1 cells; assay type: functional
Staphylococcus aureus [14] = experiment: Antimicrobial activity against Staphylococcus aureus ATCC 25923 assessed as zone of inhibition at 100 ug/ml after 24 hrs by disc diffusion method; assay type: functional; settings: ATCC 25923, 24 h, read-out: IZ
Klebsiella pneumoniae [15] = experiment: Antimicrobial activity against Klebsiella pneumoniae ATCC 700603 assessed as zone of inhibition at 100 ug/ml after 24 hrs by disc diffusion method; assay type: functional; settings: ATCC 700603, 24 h, read-out: IZ
Streptococcus agalactiae = experiment: Antimicrobial activity against Streptococcus agalactiae 55118 assessed as zone of inhibition at 100 ug/ml after 24 hrs by disc diffusion method; assay type: functional; settings: Streptococcus agalactiae, 55118, 24 h; read-out: IZ
Aspergillus flavus [16] = experiment: Antifungal activity against Aspergillus flavus; assay type: functional
Fusarium oxysporum = experiment: Antifungal activity against Fusarium oxysporum; assay type: functional
Pseudomonas aeruginosa [17] = experiment: Antimicrobial activity against Pseudomonas aeruginosa assessed as zone of inhibition at 5 mg/ml; assay type: functional; settings: read-out: IZ
Staphylococcus aureus [18] = experiment: Antimicrobial activity against Staphylococcus aureus assessed as zone of inhibition at 5 mg/ml; assay type: functional; settings: read-out: IZ
Klebsiella pneumoniae [19] = experiment: Antimicrobial activity against Klebsiella pneumoniae assessed as zone of inhibition at 5 mg/ml; assay type: functional; settings: read-out: IZ
Escherichia coli [20] = experiment: Antimicrobial activity against Escherichia coli assessed as zone of inhibition at 5 mg/ml; assay type: functional; settings: read-out: IZ
Nakaseomyces glabratus = experiment: Antifungal activity against Candida glabrata; assay type: functional
Candida tropicalis = experiment: Antifungal activity against Candida tropicalis; assay type: functional

In the case of OC(Cn1cncn1)(Cn1cncn1)c1ccc(F)cc1F [FLUCONAZOLE], the MIC (Escherichia coli [1]) is reported as 25 µg/mL (≈ 81.6 µM), the MIC (Pseudomonas aeruginosa [2]) is reported as 25 µg/mL (≈ 81.6 µM) and the MIC (Staphylococcus aureus [3]) is reported as 25 µg/mL (≈ 81.6 µM). The MIC (Candida albicans [4]) was 25 µg/mL (≈ 81.6 µM), the MIC (Staphylococcus aureus [5]) was 1 to 256 µg/mL (≈ 3.27 to 836 µM) and the MIC (Bacillus subtilis [6]) was 1 to 256 µg/mL (≈ 3.27 to 836 µM). For the same molecule, the MIC (Micrococcus luteus [7]) was 1 to 256 µg/mL (≈ 3.27 to 836 µM), the MIC (Escherichia coli [8]) was 1 to 256 µg/mL (≈ 3.27 to 836 µM) and the MIC (Pseudomonas aeruginosa [9]) was 1 to 256 µg/mL (≈ 3.27 to 836 µM). The MIC (Shigella dysenteriae) was 1 to 256 µg/mL (≈ 3.27 to 836 µM), the MIC (Candida albicans [10]) was 1 to 256 µg/mL (≈ 3.27 to 836 µM) and the MIC (Cyberlindnera jadinii) was 1 to 256 µg/mL (≈ 3.27 to 836 µM). It also gave an MIC (Aspergillus flavus [11]) of 1 to 256 µg/mL (≈ 3.27 to 836 µM), an MIC (Saccharomyces cerevisiae) of 1 to 256 µg/mL (≈ 3.27 to 836 µM) and an MIC (Pichia norvegensis) of 1 to 256 µg/mL (≈ 3.27 to 836 µM). The MIC (Aspergillus niger) was 25 µg/mL (≈ 81.6 µM).
Molecule COc1cc(-n2nnnc2SCCC(=O)N2CCN(c3cc4c(cc3F)c(=O)c(C(=O)O)cn4C3CC3)CC2)cc(OC)c1OC has an MIC (Escherichia coli [1]) of 15.6 µg/mL (≈ 23.9 µM), an MIC (Bacillus subtilis [12]) of 15.6 µg/mL (≈ 23.9 µM) and an MIC (Salmonella typhimurium) of 15.6 µg/mL (≈ 23.9 µM). For the same molecule, the MIC (Priestia megaterium) was 15.6 µg/mL (≈ 23.9 µM), the MIC (Micrococcus luteus [13]) was 15.6 µg/mL (≈ 23.9 µM) and the GI50 (SiHa) was at most 1000 nM. It also gave a GI50 (MDA-MB-231) of at most 1000 nM and a GI50 (PANC-1) of at most 1000 nM.
COc1nc(N)nc(OC)c1Sc1nnnn1CC1CCCCC1 was tested, and the zone of inhibition at 100 µg/mL (Staphylococcus aureus [14]) was 10 to 24 mm, the zone of inhibition at 100 µg/mL (Klebsiella pneumoniae [15]) was 10 to 24 mm and the zone of inhibition at 100 µg/mL (Streptococcus agalactiae) was 10 to 24 mm.
Work on Cc1cc(=O)oc2cc(OCC(O)Cn3nnnc3C)ccc12 (configuration not stated) yielded an MIC (Staphylococcus aureus [5]) of 4 to 512 µg/mL (≈ 12.6 to 1620 µM), an MIC (Bacillus subtilis [6]) of 4 to 512 µg/mL (≈ 12.6 to 1620 µM) and an MIC (Micrococcus luteus [7]) of 4 to 512 µg/mL (≈ 12.6 to 1620 µM). It also gave an MIC (Escherichia coli [8]) of 4 to 512 µg/mL (≈ 12.6 to 1620 µM), an MIC (Pseudomonas aeruginosa [9]) of 4 to 512 µg/mL (≈ 12.6 to 1620 µM) and an MIC (Shigella dysenteriae) of 4 to 512 µg/mL (≈ 12.6 to 1620 µM). The MIC (Candida albicans [10]) was 4 to 512 µg/mL (≈ 12.6 to 1620 µM), the MIC (Cyberlindnera jadinii) was 4 to 512 µg/mL (≈ 12.6 to 1620 µM) and the MIC (Aspergillus flavus [11]) was 4 to 512 µg/mL (≈ 12.6 to 1620 µM). The MIC (Saccharomyces cerevisiae) was 4 to 512 µg/mL (≈ 12.6 to 1620 µM) and the MIC (Pichia norvegensis) was 4 to 512 µg/mL (≈ 12.6 to 1620 µM).
Molecule COc1ccc(-n2cc(-c3nnn[nH]3)nn2)cc1 has an MIC (Aspergillus flavus [16]) of 100 µg/mL (≈ 411 µM), an MIC (Aspergillus niger) of 100 µg/mL (≈ 411 µM) and an MIC (Fusarium oxysporum) of 100 µg/mL (≈ 411 µM).
Cc1ccc2nc(C)c(Cn3cc(CSc4nnnn4-c4ccccc4)nn3)cc2c1 showed a zone of inhibition at 5000 µg/mL (Pseudomonas aeruginosa [17]) of 11 to 19 mm, a zone of inhibition at 5000 µg/mL (Staphylococcus aureus [18]) of 11 to 19 mm and a zone of inhibition at 5000 µg/mL (Klebsiella pneumoniae [19]) of 11 to 19 mm. It also gave a zone of inhibition at 5000 µg/mL (Escherichia coli [20]) of 11 to 19 mm.
Cc1cc2c(=O)c(OCc3nnn[nH]3)c(-c3ccc(F)cc3)oc2cc1Cl gave an MIC (Escherichia coli [1]) of 50 to 400 µg/mL (≈ 129 to 1030 µM), an MIC (Pseudomonas aeruginosa [2]) of 50 to 400 µg/mL (≈ 129 to 1030 µM) and an MIC (Staphylococcus aureus [3]) of 50 to 400 µg/mL (≈ 129 to 1030 µM). For the same molecule, the MIC (Bacillus subtilis [12]) was 50 to 400 µg/mL (≈ 129 to 1030 µM), the MIC (Candida albicans [4]) was 12.5 to 25 µg/mL (≈ 32.3 to 64.6 µM) and the MIC (Nakaseomyces glabratus) was 12.5 to 25 µg/mL (≈ 32.3 to 64.6 µM). It also gave an MIC (Candida tropicalis) of 12.5 to 25 µg/mL (≈ 32.3 to 64.6 µM).
